Results from US11903917B2, “MEK-inhibitor for the treatment of viral and bacterial infections” (priority 2017, dated 2024).

Assays:
[1] = tested on: influenza virus strain A/Regensburg/D6/2009 (RB1, H1N1 pdm09); experiment: Example 1: virus titer in the lung of infected mice, AVICEL plaque assay; type: in vivo, C57BL/6 mice
Procedure: 8 weeks old C57BL/6 mice (five per group) were infected with 1.5×10^5 PFU (5×MLD50) of the influenza virus strain A/Regensburg/D6/2009, (RB1, H1N1 pdm09). […] All animals received a volume of 200 μl per os. Mice were sacrificed 24 h post infection and lungs were weighed, transferred into a Lysing Matrix D tube (MP Bio) and BSS (buffered salt solution) in an amount of the 10-fold volume of the lung was applied to the samples. Organs were shredded using the FastPrep FP 120 (Savant). To remove the cell debris the homogenates were centrifuged for 15 min at 2000 rpm and the supernatant collected. The determination of virus titer in homogenates was performed using the AVICEL® plaque assay. Results are presented in FIG. 1 as virus titer (log 10) pfu/ml (left) or % virus titer (right). Virus titer was determined by two investigators independently. Mean values from all titrations were presented.

MRSA strain USA300 [2] = experiment: Over-night treated culture, bacterial titers (CFU/ml) and OD600; type: cell-based, Staphylococcus aureus
MRSA strain USA300 [3] = experiment: Bacterial growth under heat stress (42° C., 6 h) after inhibitor treatment; type: cell-based, Staphylococcus aureus; settings: 20 μM over night, then 42° C. for 6 h, MRSA USA300, vs solvent
Procedure: (§1) As the kinase is known to play an important role in bacterial stress resistance, bacterial growth under heat stress was monitored after treatment of the bacteria with the inhibitor PD-0184264. S. aureus strain 6850 and MRSA strain USA300 were treated over night with either solvent or 20 μM of the PD-0184264. The next day subcultures with the same amount of bacteria were prepared (confirmed by OD600 and plating on BHI agar) and further incubated at 42° C. for 6 h. Bacterial titers were then calculated via plating of serial dilutions on BHI agar plates. […] This is both observed for the methicillin-sensitive strain 6850 (black bars) as well as for the MRSA strain USA300 (grey bars). Impaired stress tolerance in the presence of the inhibitor is another indication that PD-0184264 directly targets the kinase PknB, which is an important mediator of stress resistance. In summary, the data provide strong circumstantial evidence, that PD-0184264 elicits its antibacterial action by inhibition of the bacterial kinase PknB.

S. aureus strain 6850 = experiment: as above; type: cell-based, Staphylococcus aureus; settings: 20 μM over night, then 42° C. for 6 h, strain 6850, vs solvent
Procedure: as §1

[4] = tested on: Streptococcus pneumoniae strain D39 wt (serotype 2); experiment: Over-night growth of Streptococcus pneumoniae (OD600, bacterial titers); type: cell-based; settings: over night treatment
Procedure: (§2) Similar to S. aureus, the majority of Streptococcus pneumoniae strains express eukaryotic-like serine/threonine kinases, such as PknB, which are highly conserved between different genera. Additionally, these kinases share high homology to cellular MAP kinases (e.g. ERK, JNK, p38). […] Thus, the impact of PD-0184264 on different strains of Streptococci pneumonia was analyzed. Streptococcus pneumoniae strains can be divided into different serotypes, which differ in their virulence and overall pathogenicity. To test for a serotype- or strain-independent effect, we used the encapsulated strains D39 and TIGR4, which are both virulent, but belong to different serotypes. […] Then, the OD600 was measured again (Results shown in FIG. 11A) and dilution series were objected to BHI agar plates to determine bacterial titers (Results shown in FIG. 11B).

[5] = tested on: Streptococcus pneumoniae strain TIGR4 (serotype 4); experiment: as above; type: cell-based; settings: over night treatment
Procedure: as §2

Bacillus subtilis = experiment: Bacterial load of B. subtilis after 18 h (OD600, plating); type: cell-based
Procedure: Specifically, to test for a potential antibacterial effect on B. subtilis, over-night cultures of B. subtilis were incubated with either solvent or different concentrations of the MEK inhibitor PD-0184264 (as indicated) for 18 h. Afterwards, bacterial load was determined via measurement of the OD600 and plating of serial dilutions on BHI agar plates. Data shown in FIG. 11 represent means+SD of three independent experiments.

A549 cells = experiment: A549 cell viability (trypan blue) and LDH release; type: cell-based, human; settings: 1-100 μM, 24 and 48 hours
Procedure: To rule out that the reduction in viral and intracellular bacterial replication was a result of a cytotoxic effect of PD-0184264 on A549 cells, cell viability in presence of increasing concentrations was monitored for 24 and 48 hours. Additionally, a LDH-Assay was performed to determine membrane rupture due to inhibitor treatment. […] A549 cells were treated for 24 (as shown in FIGS. 15A and C) or 48 (as shown in FIGS. 15B and D) hours with increasing concentrations of PD-0184264 (1, 5, 10, 20, 50 or 100 μM). After the incubation times, supernatants were taken for measurement of LDH release (shown in FIGS. 15C, D) using the CytoSelect LDH Cytotoxicity Assay Kit according to the manufacturer's instructions. Additionally, viable cells were counted by staining with trypan blue. Cell viability was normalized to DMSO-treated cells and is shown as % viability. […] Statistical significance was calculated by one-way ANOVA followed by Dunnett's multiple comparisons test (*p<0.05; **p<0.01; […]***p<0.001).

[6] = WST-Assay (cell viability); type: cell-based; settings: human, A549 cells, FIG. 17C
Procedure: A549 cells were seeded in a 96-well flat-bottom tissue plate (Greiner, Germany) and were grown overnight. […] Thereafter, 10 μl WST-1 reagent (Roche, Germany) was added to the culture medium and incubated for four hours. During this time, the stable tetrazolium salt WST-1 was cleaved to a soluble formazan by metabolically active cells in the culture. After this incubation period, the formazan dye formed was quantitated with ELISA reader at 405 nm. The measured absorbance directly correlated to the number of viable cells.

## O=C(O)c1ccc(F)c(F)c1Nc1ccc(I)cc1Cl [PD-0184264, 2-(2-chloro-4-iodophenylamino)-N-3,4-difluoro benzoic acid]
[1]; 25 mg/kg per os, 8 h interval, 24 h post infection
  effect on virus titer in the lung (FIG. 1): same effect as 150 mg/kg CI-1040
[1]; 25 and 75 mg/kg
  efficacy in vivo by oral administration (Example 1): effective
MRSA strain USA300 [2]; 10 μM, over night, MRSA USA300
  reduction of bacterial growth (FIG. 4): significant reduction of growth
MRSA strain USA300 [2]; 20 μM, over night, MRSA USA300, CFU/ml
  reduction of bacterial titers: 1.5-2 orders of a magnitude
MRSA strain USA300 [2]; over night treatment, MRSA USA300, vs solvent
  effect on bacterial titers (CFU/ml): very strong reduction in bacterial load
MRSA strain USA300 [3]
  bacterial growth under heat stress (bacterial titers): strongly impaired
S. aureus strain 6850
  bacterial growth under heat stress (bacterial titers): strongly impaired
[4]
  sensitivity of growth (OD600, bacterial titers): sensitive
[5]
  sensitivity of growth (OD600, bacterial titers): sensitive
Bacillus subtilis; 10 μM
  viable bacterial counts: strong decrease in viable bacterial counts
Bacillus subtilis; concentrations higher than 10 μM
  viable bacterial counts: complete abolishment
A549 cells
  cell toxicity (cell viability, LDH release): does not induce cell toxicity
[6]
  CC50 at 24 h: > 1580 µM
